Reference: US4450269A, “Mono-5-substituted-3-chloro-4H-1,2,6-thiadiazin-4-one antifungal agents” (FMC Corporation, priority 1980, dated 1984)
Where two headings read alike, the source gives them in different places.

Tests used:
[1] = test system: Phytophthora infestans; assay type: cell-based; conditions: PI, 48 hours
[2] = test system: Rhizoctonia solani; assay: Mycelial growth test; assay type: cell-based; conditions: RS; for inhibition at 5 ppm / inhibition at 10 ppm / inhibition at 20 ppm / inhibition at 40 ppm: Rhizoctonia solani, 72 h, read-out: Percent Fungus Growth Inhibition; for Percent Fungus Growth Inhibition: 72 hours
Source text: | RS = Rhizoctonia solani

Compound	Spore Germination Rating ([1]; 1.0 ppm)	Spore Germination Rating ([1]; 2.5 ppm)	Spore Germination Rating ([1]; 10 ppm)	Spore Germination Rating ([1]; 40 ppm)	inhibition at 5 ppm ([2]; 5 ppm) [%]	inhibition at 10 ppm ([2]; 10 ppm) [%]	inhibition at 20 ppm ([2]; 20 ppm) [%]	inhibition at 40 ppm ([2]; 40 ppm) [%]	Percent Fungus Growth Inhibition ([2]; 5 ppm) [%]	Percent Fungus Growth Inhibition ([2]; 10 ppm) [%]	Percent Fungus Growth Inhibition ([2]; 20 ppm) [%]	Percent Fungus Growth Inhibition ([2]; 40 ppm) [%]
Cc1cc(Oc2nsnc(Cl)c2=O)cc(C)c1Br [Compound 60, 3-[(4-bromo-3,5-dimethyl)-phenoxy]-5-chloro-4H--1,2,6-thiadiazin-4-one]	4 (80-100)	2 (40-60)	1 (10-40)	0 (0-10)	42	31	42	56	–	–	–	–
3-chloro-5-(bromophenoxy)-4H-1,2,6-thiadiazin-4-one [Compound 33]	0 (0-10)	0 (0-10)	0 (0-10)	0 (0-10)	–	–	–	–	31	42	64	100
O=C(Nc1ccccc1)Oc1ccc(Oc2nsnc(Cl)c2=O)cc1 [Compound 37, 3-chloro-5-[4-(phenylaminocarbonyloxy)phenoxy]-4H-1,2,6,-thiadiazin-4-one]	4 (80-100)	4 (80-100)	4 (80-100)	4 (80-100)	11	42	31	51	–	–	–	–
O=C(O)c1ccc(Oc2nsnc(Cl)c2=O)cc1 [Compound 50, 3-(4-carboxyphenoxy)-5-chloro-4H--1,2,6-thiadiazin-4-one]	4 (80-100)	2 (40-60)	0 (0-10)	0 (0-10)	42	0	13	47	–	–	–	–
O=c1c(Cl)nsnc1Oc1ccc(F)cc1 [Compound 11, 3-chloro-5-(4-fluorophenoxy)-4H--1,2,6-thiadiazin-4-one]	4 (80-100)	0 (0-10)	0 (0-10)	0 (0-10)	0	38	76	91	–	–	–	–
CC(=O)c1ccc(Oc2nsnc(Cl)c2=O)cc1 [Compound 47, 3-(4-acetylphenoxy)-5-chloro-4H--1,2,6-thiadiazin-4-one]	0 (0-10)	0 (0-10)	0 (0-10)	0 (0-10)	58	47	69	78	–	–	–	–
CC(=O)c1cccc(Oc2nsnc(Cl)c2=O)c1 [Compound 48, 3-(3-acetylphenoxy)-5-chloro-4H--1,2,6-thiadiazin-4-one]	0 (0-10)	0 (0-10)	0 (0-10)	0 (0-10)	64	24	64	76	–	–	–	–
O=c1c(Cl)nsnc1Oc1ccc([N+](=O)[O-])cc1 [Compound 9, 3-chloro-5-(4-nitrophenoxy)-4H--1,2,6-thiadiazin-4-one]	0 (0-10)	0 (0-10)	0 (0-10)	0 (0-10)	13	42	69	78	–	–	–	–
3-chloro-5-[methylaminocarbonyloxy)phenoxyl]-4H-1,2,6-thiadiazin-4-one [Compound 36]	4 (80-100)	4 (80-100)	4 (80-100)	0 (0-10)	–	–	–	–	0	4	42	87
O=c1c(Cl)nsnc1Oc1cccc(Cl)c1 [Compound 13, 3-chloro-5-(3-chlorophenoxy)-4H--1,2,6-thiadiazin-4-one]	0 (0-10)	0 (0-10)	0 (0-10)	0 (0-10)	24	53	69	76	–	–	–	–
Cc1cc(Oc2nsnc(Cl)c2=O)cc(C)c1Cl [Compound 59, 3-chloro-5-[(4-chloro-3,5-dimethyl)phenoxy]-4H--1,2,6-thiadiazin-4-one]	4 (80-100)	1 (10-40)	1 (10-40)	0 (0-10)	33	24	33	69	–	–	–	–
Cc1cc(Oc2nsnc(Cl)c2=O)ccc1Cl [Compound 54, 3-chloro-5-(4-chloro-3-methylphenoxy)-4H--1,2,6-thiadiazin-4-one]	1 (10-40)	0 (0-10)	0 (0-10)	0 (0-10)	38	42	42	71	–	–	–	–
Cc1cc(Cl)ccc1Oc1nsnc(Cl)c1=O [Compound 55, 3-chloro-5-(4-chloro-2-methylphenoxy)-4H--1,2,6-thiadiazin-4-one]	1 (10-40)	0 (0-10)	0 (0-10)	0 (0-10)	33	56	31	53	–	–	–	–
N#Cc1ccc(Oc2nsnc(Cl)c2=O)cc1 [Compound 10, 3-chloro-5-(4-cyanophenoxy)-4H--1,2,6-thiadiazin-4-one]	0 (0-10)	0 (0-10)	0 (0-10)	1 (10-40)	9	13	100	100	–	–	–	–
O=c1c(Cl)nsnc1Oc1ccc(Cl)cc1Cl [Compound 17, 3-chloro-5-(2,4-dichlorophenoxy)-4H--1,2,6-thiadiazin-4-one]	3 (60-80)	0 (0-10)	0 (0-10)	0 (0-10)	40	53	76	76	–	–	–	–
Cc1cc(Cl)c(Oc2nsnc(Cl)c2=O)cc1C [Compound 58, 3-chloro-5-[(2-chloro-4,5-dimethyl)phenoxy]-4H--1,2,6-thiadiazin-4-one]	3 (60-80)	2 (40-60)	0 (0-10)	0 (0-10)	56	58	53	64	–	–	–	–
O=c1c(Cl)nsnc1Oc1cccc2ccccc12 [Compound 32, 3-chloro-5(1-naphthoxy)-4H-1,2,6-thiadiazin-4-one]	3 (60-80)	1 (10-40)	0 (0-10)	0 (0-10)	76	42	69	73	–	–	–	–
CC(C)(C)c1ccc(Oc2nsnc(Cl)c2=O)cc1 [Compound 4, 3-chloro-5-(4-tert-butylphnoxy)-4H--1,2,6-thiadiazin-4-one]	4 (80-100)	3 (60-80)	0 (0-10)	0 (0-10)	0	0	0	0	–	–	–	–
Cc1ccc(Cl)c(Oc2nsnc(Cl)c2=O)c1 [Compound 56, 3-chloro-5-[(2-chloro-5-methyl)phenoxy]-4H--1,2,6-thiadiazin-4-one]	4 (80-100)	0 (0-10)	0 (0-10)	0 (0-10)	33	78	100	100	–	–	–	–
O=c1c(Cl)nsnc1Oc1ccc(Cl)c(Cl)c1 [Compound 16, 3-chloro-5-(3,4-dichlorophenoxy)-4H--1,2,6-thiadiazin-4-one]	1 (10-40)	0 (0-10)	0 (0-10)	0 (0-10)	29	31	31	69	–	–	–	–
Nc1ccc(Oc2nsnc(Cl)c2=O)cc1 [Compound 26, 5-(4-aminophenoxy)-3-chloro-4H--1,2,6-thiadiazin-4-one]	4 (80-100)	4 (80-100)	4 (80-100)	2 (40-60)	0	–	42	76	–	53	–	–
Cc1ccc(Oc2nsnc(Cl)c2=O)cc1 [Compound 3, 3-chloro-5-(4-methylphenoxy)-4H--1,2,6-thiadiazin-4-one]	3 (60-80)	2 (40-60)	0 (0-10)	0 (0-10)	0	20	56	100	–	–	–	–
CC(=O)Nc1ccc(Oc2nsnc(Cl)c2=O)cc1 [Compound 8, 5-(4-acetylaminophenoxy)-3-chloro-4H--1,2,6-thiadiazin-4-one]	4 (80-100)	4 (80-100)	0 (0-10)	0 (0-10)	0	0	7	42	–	–	–	–
Cc1ccc(Oc2nsnc(Cl)c2=O)c(Br)c1 [Compound 57, 3-[(2-bromo-4-methyl)-phenoxy]-5-chloro-4H--1,2,6-thiadiazin-4-one]	4 (80-100)	1 (10-40)	0 (0-10)	0 (0-10)	53	69	80	78	–	–	–	–
O=c1c(Cl)nsnc1Oc1c(Cl)cccc1Cl [Compound 18, 3-chloro-5-(2,6-dichlorophenoxy)-4H--1,2,6-thiadiazin-4-one]	3 (60-80)	0 (0-10)	0 (0-10)	0 (0-10)	42	56	76	87	–	–	–	–
O=c1c(Cl)nsnc1Oc1c(Cl)c(Cl)c(Cl)c(Cl)c1Cl [Compound 31, 3-chloro-5-(pentachlorophenoxy)-4H--1,2,6-thiadiazine-4-one]	4 (80-100)	3 (60-80)	2 (40-60)	2 (40-60)	53	69	73	76	–	–	–	–
